Patent US20260258397A1, “REAGENTS AND SYSTEMS FOR […]” (priority 2023, published 2026)
“And” between values parts separate entries of the source, which are not always exact repeats. Identical values can stand only once. Like-named read-outs stand apart in the source and are kept apart here.

Key:
[1] = tested on: HAB1; test: Y2H X-gal staining of evolved sensors: ligand responsiveness and cross reaction; type: cell-based, Arabidopsis; details: ligands WIN 55,212-2, 4F-MDMB-BUTINACA, AB-PINACA, JWH-072; PYR1^JWH-072 to low μM WIN 55,212-2, PYR1^4F to low μM AB-PINACA
Experimental: High-affinity sensors were tested for cross reaction using both Y2H and in vitro PP2C assays. […] Similar methods were used to characterize PYR1^PIRI and PYR1^WIN sensor selectivity and sensitivity.
The PYL2 coding sequence cloned in the Y2H pBD vector was used as template to incorporate the corresponding PYR1^WIN and PYR1^4F homologous residues via site directed mutagenesis using the QuikChange Lightning Multi Site-Directed mutagenesis kit (Agilent Technologies). Resulting clones PYL2^WIN (K64Q, F165A, V1661) and PYL2^4F (H119Q, Y124G, F165V, V166G) were sequence confirmed and incorporated into MAV99 harboring pACT-HAB1 and tested for ligand activation using uracil-independent growth and X-gal staining experiments. The same method was used to generate a PYL2^WIN version in a protein expression vector for crystallization studies.

[2] = tested on: PYR1 mutant receptors (ligand-dependent binding to HAB1); test: Yeast two-hybrid screens and optimization for organophosphate sensors; type: cell-based, Arabidopsis; details: after four rounds of recombination-based mutagenesis (PYR1^DIAZI, PYR1^PIRI)
Experimental: Surviving cells were collected and used in subsequent positive selections for ligand-responsive receptors on SD,-Leu,-Trp,-Ura media supplemented with a specific test chemical (100 μM) for responsiveness to any of the 10-member panel of organophosphate compounds: diazinon, pirimiphos-methyl, azinphos-ethyl, dimethoate, chlorfenvinphos, disulfoton, parathion-methyl, bromophos-methyl, malathion, and monocrotophos; all compounds were purchased form (Sigma-Aldrich). Isolated colonies were tested by regrowth on ligand-containing media and by dose response using X-gal staining and Sanger sequenced (see FIG. 13a-d).
Recombination-based mutagenesis of hit receptors was used to generate subsequent molecular diversity for selection-based optimization experiments, using the same general strategy across all scaffolds utilized. […] The resulting shuffled DNA fragments were cloned into pBD, transformed into E. coli, colonies collected, and plasmids extracted.

[3] = biological target: T1, PYR1^DIAZI (Arabidopsis thaliana, UniProt O49686, A160V/E8G/F108Y/F159G/L87M/M158V/V81Y); test: cell-based; details: for Bottom: fit bottom of GFP fluorescence response; for Top: fit top of GFP fluorescence response
T1 construct: expressed in transfected cells; host or cells: S. cerevisiae (2µ plasmid)
T1 sequence (O49686 1-191 E8G/V81Y/L87M/F108Y/M158V/F159G/A160V): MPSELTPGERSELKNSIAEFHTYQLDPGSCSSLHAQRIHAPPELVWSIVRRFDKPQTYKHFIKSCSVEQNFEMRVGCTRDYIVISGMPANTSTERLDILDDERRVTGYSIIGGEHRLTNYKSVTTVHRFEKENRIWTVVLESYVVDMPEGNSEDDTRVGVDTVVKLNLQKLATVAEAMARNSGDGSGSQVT
T1 sequence (Q9CAJ0 178-511 partner): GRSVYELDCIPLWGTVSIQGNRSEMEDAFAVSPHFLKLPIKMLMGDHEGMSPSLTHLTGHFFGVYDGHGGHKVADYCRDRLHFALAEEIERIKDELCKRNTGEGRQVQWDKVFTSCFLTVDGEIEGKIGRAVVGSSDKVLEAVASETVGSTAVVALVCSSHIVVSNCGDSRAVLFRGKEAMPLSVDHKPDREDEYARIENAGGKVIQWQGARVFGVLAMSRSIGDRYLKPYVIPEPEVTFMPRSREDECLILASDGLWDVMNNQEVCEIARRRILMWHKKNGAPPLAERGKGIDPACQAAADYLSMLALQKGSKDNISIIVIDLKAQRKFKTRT
Excerpt: (§1) PYR1 variants were used to drive gene expression in an inducible genetic circuit by fusing a zinc finger DNA binding domain (Z4^32) to the N-terminus of PYR1, and the VP64 activation domain 33 to the N-terminus of ΔN-HAB1. The SV40 nuclear localization signal was also fused to the N-terminus of PYR1. A single 2u plasmid was used to express SV40-Z4DBD-PYR1 and VP64-HAB1, while the GFP expression cassette (Z44-CYCcore-GFP-CYC 1term) was integrated at the YPRCΔ15 site on chromosome XVI. GFP fluorescence induced by each circuit was measured 12 h after ligand addition to 1 mL cultures, 30° C. Fluorescence was measured by flow cytometry. Briefly, 50 μL of resuspended cells were transferred to a 96-well plate for analysis. The fluorescence intensity of each cell was measured using a BD Accuri C6 flow cytometer equipped with auto-loading. The forward scatter, side scatter, and GFP fluorescence (Ex/Em 488/533 nm) were recorded for a minimum of 10,000 events.
(§2) Transformed yeast cells were acquired by first inoculating 5 mL of liquid media and incubating in a shaker incubator overnight at 30° C. Cells from the overnight culture were then used to inoculate a 50 mL culture with an initial cell density of 5×10^6 cells/mL. This culture was grown at 30° C. with 200 rpm shaking until ~2×10^7 cells/mL were produced, approximately 3 to 5 hours. Cells were harvested by centrifugation at 4000 rpm for 5 min, washed with 25 mL sterile, deionized water, resuspended in 1 mL of 100 mM LiAc, and transferred to a 1.5 mL tube, producing a cell suspension with approximately 10^9 cells/mL. The cell suspension was briefly mixed by vortexing and 100 μL was transferred into a clean 1.5 mL tube for each transformation. Cells were pelleted at 13000 rpm for 15 sec and the supernatant was removed. A transformation mixture of 240 μL PEG (50% w/v), 36 μL 1.0 M LiAc, 50 μL salmon sperm DNA (2.0 mg/ml), plasmid, and sterile water were added to the cell pellet and mixed by vortexing for 1 min (total volume of 360 μL). The mixed transformation solution was then heat shocked at 42° C. for 40 min. Post heat-shock, cells were recovered by centrifugation at 8000 rpm for 30 sec. Cells resuspended in 400 μL sterile water were plated on appropriate selection media, in this case agar-SD media without uracil. Plates were incubated at 30° C. until mature colonies were formed.
(§3) Three single transformants were picked from selection plates, inoculated in 2 mL of SD-Ura containing 2% glucose in 14 mL culture tubes. After 24 hours of growth at 30° C. in a shaker incubator (200 rpm), the OD600 of each sample was measured and cultures were back diluted to OD600=0.2 in fresh SD-Ura, the total volume of diluted culture was 9 mL. Each 9 mL culture was separated into 8 unique cultures by transferring 1 mL into 8 different wells of a 96 deep-well plate. Each well was used to evaluate the effect of a specific concentration of ligand. After all the cultures were transferred, 1 μL of stock ligand solution (each stock varying in concentration) was added to each well. The plate was sealed with an air-breathable polymer film and cultured with 1000 rpm shaking at 30° C. for 12 hours. Shaker humidity was maintained at 90%. Cells were harvested by centrifuge at 5000 g for 10 min, and after discarding the supernatant, the cells were suspended in 1 mL PBS buffer and centrifuged at 5000 g for 10 min. The cells were washed with 1 mL PBS buffer twice and resuspended in 1 mL DI water for flow cytometry analysis. For flow cytometry analysis, 50 μL of resuspended cells were transferred to a 96-well plate with flat bottom, adding DI water up to final volume 200 μL. The fluorescence intensity of cells within each sample was measured using a BD Accuri C6 flow cytometer equipped with auto-loading from 96 well plates. The forward scatter, side scatter, and GFP fluorescence (Ex/Em 488/533 nm) were recorded for a minimum of 10,000 events.

[4] = biological target: T2, PYR1^PIRI (Arabidopsis thaliana, UniProt O49686, A160T/E130G/F159T/K59R/N119S/S122Q/S92M/V174A); test: cell-based; details: for Bottom: fit bottom of GFP fluorescence response; for Top: fit top of GFP fluorescence response
T2 construct: expressed in transfected cells; host or cells: S. cerevisiae (2µ plasmid)
T2 sequence (O49686 1-191 K59R/S92M/N119S/S122Q/E130G/F159T/A160T/V174A): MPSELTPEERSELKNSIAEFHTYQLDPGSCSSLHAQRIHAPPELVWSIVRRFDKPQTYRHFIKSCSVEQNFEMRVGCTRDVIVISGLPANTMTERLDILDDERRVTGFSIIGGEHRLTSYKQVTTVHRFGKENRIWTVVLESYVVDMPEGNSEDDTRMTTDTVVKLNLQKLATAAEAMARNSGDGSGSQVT
T2 sequence (Q9CAJ0 178-511 partner): T1 sequence (Q9CAJ0 178-511 partner)
Excerpt: as §1, §2, §3

[5] = biological target: T3, PYR1^4F-M (Arabidopsis thaliana, UniProt O49686, A160G/F159V/H115Q/H60P/N90S/Y120G); test: PYR1 ELISA-like plate assay, immobilized PYR1^4F-M with biotinylated ΔN-HAB1^T+; type: binding; details: PYR1^4F-M ELISA-like format
T3 construct: made in house; host or cells: E. coli
T3 sequence (O49686 whole entry H60P/N90S/H115Q/Y120G/F159V/A160G, other chains not shown): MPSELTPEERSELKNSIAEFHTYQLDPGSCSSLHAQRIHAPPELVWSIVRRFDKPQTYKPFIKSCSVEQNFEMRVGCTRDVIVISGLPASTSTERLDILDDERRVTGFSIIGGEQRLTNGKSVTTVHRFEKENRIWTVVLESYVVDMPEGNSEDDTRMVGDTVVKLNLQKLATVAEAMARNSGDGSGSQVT
Experimental: PYR1 was immobilized overnight in clear plates, blocked with KPL milk diluent in buffer CBS ^17 (CBSM). All binding reactions were performed using CBSM. Detection was performed via binding a streptavidin-HRP conjugate to biotinylated ΔN-HAB1^T+ followed by incubation with a commercial TMB reagent. Lower limits of detection (LODs) were determined by linear regression of the response data in the low linear range using the formula LOD=3σy/m, where m is the slope of the response line and σy is the standard error of the y intercept using data combined from biological replicates.
Unconjugated 6×His-MBP-PYR1 variants were immobilized to Microlon clear plates (655081) using 100 μL of CBS without pH modification, at a protein concentration of 100 μg mL^−1, or 1.57 AM at 4° C. overnight. Wells assigned as no PYR controls received only CBS. Plates were sealed using Microseal B adhesive sealers (BioRad MSB-1001). […] The pellet was stored on ice until the blocked and washed plates were ready to receive the binding reactions. ΔN-HAB1^T+ was exchanged into CBSM with 1 mM DTT and 1 mM TCEP (CBSM++) using Zeba™ spin desalting columns (Thermo) were equilibrated with CBSM++. ΔN-HAB1^T+ was diluted to 10× the final binding reaction concentration and was immediately added to the pre-assembled assays in PCR plates, which were mixed by pipetting and transferred to the washed, blocked Microlon plates. […]

| Compound | ligand concentration to which optimized sensors respond [2] [nM] | Bottom ([3]; PYR1-DIAZI) | Top ([3]; PYR1-DIAZI) | Bottom ([4]; PYR1-PIRI) | Top ([4]; PYR1-PIRI) | also measured |
| --- | --- | --- | --- | --- | --- | --- |
| PYR1^JWH-072: PYR1 variant sensor for JWH-072; cannabinoid receptor sequence (MPSGLTPEERSELKNSIAEFHTYQLDPGSCSSLHAQRIHAPPELVWSIVRRFDKPQTYN) | – | – | – | – | – | cross-reactivity to off-target cannabinoid ligands [1]: modest cross-reactivity |
| CCOP(=S)(OCC)Oc1cc(C)nc(C(C)C)n1 [Diazinon, diazinon] | 10 | 17196 | 103999 | 19123 | 109997 | EC50 ([3]; PYR1-DIAZI, no unit in table (text b82 gives the same values in nM), read-out: EC50): 43.1 nM; EC50 ([3]; PYR1^DIAZI, yeast-transcription circuit, read-out: EC50): 43 nM; EC50 to diazinon lower than all other molecules profiled ([3]; PYR1^DIAZI, selectivity versus panel of chemically similar organophosphates): greater than 10 fold; EC50 ([4]; PYR1-PIRI, no unit in table (text b82 gives the same values in nM/μM), read-out: EC50): 1010 nM; EC50 ([4]; PYR1^PIRI, yeast-transcription circuit, strongest off-target response, read-out: EC50): 1000 nM; EC50 higher than that with pirimiphos ([4]; PYR1^PIRI, off-target diazinon versus pirimiphos): 50 fold |
| COC(=O)[C@@H](NC(=O)c1nn(CCCCF)c2ccccc12)C(C)(C)C [4F-MDMB, 4F-MDMB-BUTINACA] | – | – | – | – | – | average LOD from two biological replicates [5]: 6 nM and 2.2 ng/ml |
| CCN(CC)c1nc(C)cc(OP(=S)(OC)OC)n1 [Pirimiphos, pirimiphos-methyl] | 10 | 14673 | 88148 | 12745 | 105951 | EC50 [3]: 17400 nM; EC50 [4]: 20 nM |
